# Like-named read-outs stand apart in the source and are kept apart here.
# What was measured:
# [1] = system: differentiated hMADS adipocytes; test: Isoproterenol-stimulated lipolysis in differentiated hMADS adipocytes; format: cell-based; settings: Homo sapiens, Adipocyte, 2 h pretreatment, 1 μM isoproterenol 1 h
# Procedure: Human differentiated hMADS adipocytes were pretreated with DMSO or ATGL inhibitors for 2 h. Subsequently, lipolysis was stimulated with 1 μM Isoproterenol for 1 h and fatty acid release was determined from media via NEFA Reagent (Wako Diagnostics). Samples were measured in triplicates.
# Human differentiated hMADS adipocytes were pretreated with DMSO or ATGL inhibitors for 2 h. Subsequently, lipolysis was stimulated with 1 μM Isoproterenol for 1 h and glycerol release was determined from media via Free glycerol reagent (Sigma Aldrich). Samples were measured in triplicates.
# HepG2 cells = test: Toxicity screening (LDH) in HepG2 cells; format: cell-based, human; settings: 24 h treatment, LDH release
# Procedure: (§1) HepG2 cells were seeded in 96 well plates and at 50% confluency treated with DMSO (0.5% final conc.) or ATGL Inhibitors for 24 h in DMEM+P/S+3% heat inactivated FCS (3 h at 62° C.). Subsequently, LDH activity of 50 μl medium was determined via the Roche LDH Kit. Samples measured in triplicates.
# human ATGL = target: T1, human ATGL (Homo sapiens, UniProt Q96AD5); test: Ki determination, human ATGL lysates with increasing substrate concentrations; format: biochemical; settings: non-linear regression
# T1 construct: made in house; host or cells: Expi cells (lysate, not purified)
# T1 sequence (Q96AD5 1-504): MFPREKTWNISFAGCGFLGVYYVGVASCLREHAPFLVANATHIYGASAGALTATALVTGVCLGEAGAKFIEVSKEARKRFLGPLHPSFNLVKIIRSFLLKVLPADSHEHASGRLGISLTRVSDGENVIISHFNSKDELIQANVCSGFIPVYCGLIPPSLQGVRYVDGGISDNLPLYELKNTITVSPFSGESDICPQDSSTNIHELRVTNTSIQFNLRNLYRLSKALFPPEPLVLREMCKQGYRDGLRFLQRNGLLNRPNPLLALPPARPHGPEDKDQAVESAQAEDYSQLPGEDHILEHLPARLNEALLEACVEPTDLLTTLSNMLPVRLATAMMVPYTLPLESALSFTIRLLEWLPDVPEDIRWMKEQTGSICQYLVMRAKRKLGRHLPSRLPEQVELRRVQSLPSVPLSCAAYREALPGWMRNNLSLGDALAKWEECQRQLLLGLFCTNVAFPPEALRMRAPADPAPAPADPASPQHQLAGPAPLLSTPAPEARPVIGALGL
# Procedure: For determination of Ki values, lysates from Expi cells overexpressing human ATGL were incubated with recombinant purified ATGL co-activator CGI-58 and ATGL inhibitors at a single concentration dependent on the previously determined IC50. Increasing concentrations of substrate containing radiolabeled triolein were added and liberated FA were extracted and quantified by liquid scintillation. Inhibitors were dissolved in DMSO which was used as control. Ki was determined via non-linear regression analysis. Samples were measured in triplicates.
# AML-12 cells = test: Toxicity screening (LDH) in AML-12 cells; format: cell-based, mouse; settings: 24 h treatment, LDH release
# Procedure: as §1, with “AML-12” for “HepG2”, “80%” for “50%”, “Subsequently, medium was centrifuged at 300 g for 3 min, and” for “Subsequently,”, “supernatant” for “medium”
# [2] = system: differentiated 3T3-L1 adipocytes; test: Isoproterenol-stimulated lipolysis in differentiated 3T3-L1 adipocytes; format: cell-based; settings: Mus musculus, 2 h pretreatment
# Procedure: Mouse differentiated 3T3-L1 adipocytes were pretreated with DMSO or ATGL inhibitors for 2 h. Subsequently, lipolysis was stimulated with 1 μM Isoproterenol for 1 h and fatty acid release was determined from media via NEFA Reagent (Wako Diagnostics). Samples were measured in triplicates.
# Mouse differentiated 3T3-L1 adipocytes were pretreated with DMSO or ATGL inhibitors for 2 h. Subsequently, lipolysis was stimulated with 1 μM Isoproterenol for […] and glycerol release was determined from media via Free glycerol reagent (Sigma Aldrich). Samples were measured in triplicates.
# [3] = system: differentiated SGBS adipocytes; test: Isoproterenol-stimulated lipolysis in differentiated SGBS adipocytes; format: cell-based; settings: Homo sapiens, 2 h pretreatment, 1 μM isoproterenol 1 h
# Procedure: Human differentiated SGBS adipocytes were pretreated with DMSO or ATGL inhibitors for 2 h. Subsequently, lipolysis was stimulated with 1 μM Isoproterenol for 1 h and fatty acid release was determined from media via NEFA Reagent (Wako Diagnostics). Samples were measured in triplicates.
# Human differentiated SGBS adipocytes were pretreated with DMSO or ATGL inhibitors for 2 h. Subsequently, lipolysis was stimulated with 1 μM Isoproterenol for 1 h and glycerol release was determined from media via Free glycerol reagent (Sigma Aldrich). Samples were measured in triplicates.
# [4] = 1 μM isoproterenol 1 h, fatty acid release, read-out: IC50 3T3 FA release
# [5] = 1 μM isoproterenol, glycerol release, read-out: IC50 3T3 glycerol release
# [6] = fatty acid release, read-out: IC50 SGBS FA release
# [7] = glycerol release, read-out: IC50 SGBS glycerol release
Structure (SMILES),Tox AML-12 (LDH) seen from (AML-12 cells) [µM],"IC50 [2, 4] [µM]","IC50 [2, 5] [µM]","IC50 [3, 6] [µM]","IC50 [3, 7] [µM]",melting point [°C],also measured
"CCOc1ccc(-c2nc(C(=O)OCc3cccs3)cs2)cc1 [Example 152, Thiophen-2-ylmethyl 2-(4-ethoxyphenyl)thiazole-4-carboxylate]",–,–,–,–,–,–,"IC50 ([1]; fatty acid release, read-out: IC50 hMADS FA release): 12 µM; IC50 ([1]; glycerol release, read-out: IC50 hMADS glycerol release): 10 µM; Tox HepG2 (LDH) seen from (HepG2 cells): 200 µM; Ki (human ATGL): 8.2 µM"
"CC#CCOC(=O)c1csc(-c2ccc(OCC)cc2)n1 [Example 209, But-2-yn-1-yl 2-(4-ethoxyphenyl)thiazole-4-carboxylate]",100,–,–,–,–,–,Tox HepG2 (LDH) seen from (HepG2 cells): 200 µM
"C#C[C@@H](C)OC(=O)c1csc(-c2ccc(OCC)cc2)n1 [Example 211, (R)-But-3-yn-2-yl 2-(4-ethoxyphenyl)thiazole-4-carboxylate]",100,4,20,0.9,0.9,–,–
"CCOc1ccc(-c2nc(C(=O)OCc3ccoc3)cs2)cc1 [Example 216, Furan-3-ylmethyl 2-(4-ethoxyphenyl)thiazole-4-carboxylate]",50,10,25,0.8,1,–,–
"CCCCOC(=O)c1csc(-c2ccc(OCC)cc2)n1 [Example 212, Butyl 2-(4-ethoxyphenyl)thiazole-4-carboxylate]",200,–,–,–,–,–,–
"CCOc1ccc(-c2cccc(C(=O)OCc3ccco3)n2)cc1 [Example 190, Furan-2-ylmethyl 6-(4-ethoxyphenyl)picolinate]",200,6,25,12,25,76 to 80,–
"CCOc1ccc(-c2cccc(C(=O)OCc3cccs3)n2)cc1 [Example 189, Thiophen-2-ylmethyl 6-(4-ethoxyphenyl)picolinate]",200,–,–,–,–,93 to 94,–
CCOc1ccc(-c2cc(OC)cc(C(=O)OC(C)C)n2)cc1 [Example 35],–,–,–,1,2,79 to 81,Ki (human ATGL): 0.5 µM
"C#C[C@H](C)OC(=O)c1csc(-c2ccc(OCC)cc2)n1 [Example 210, (S)-But-3-yn-2-yl 2-(4-ethoxyphenyl)thiazole-4-carboxylate]",200,–,–,0.6,1,–,–
"COc1cc(C(=O)OC(C)C)nc(-c2ccc(OC(C)C)cc2)c1 [Example 201, Isopropyl 6-(4-isopropoxyphenyl)-4-methoxypicolinate]",200,–,–,–,–,70 to 71,–
"CCOc1ccc(-c2nc(C(=O)OCc3ccsc3)cs2)cc1 [Example 215, Thiophen-3-ylmethyl 2-(4-ethoxyphenyl)thiazole-4-carboxylate]",–,6,15,3,4,–,–

# Reference: patent US20220289698A1, “INHIBITORS OF HUMAN ATGL” (Karl-Franzens-Universität Graz, priority 2019, published 2022)
